From patent US20230165869A1, “DIAZINE AND TRIAZINE COMPOUNDS TO TREAT CYTOKINE STORM SYNDROME” (UNIVERSITY OF GREENWICH, priority 2020, published 2023)
Where two headings read alike, the source gives them in different places.

Columns and labels:
Interleukin-1β = Interleukin-1β secretion from LPS-stimulated PBMCs; format: cell-based; conditions: stimulated human PBMCs, result in words
Description: (§1) The compounds of Formula (I) may be investigated for inhibition of pro-inflammatory cytokines Interleukin (IL)-[…], 6,8 and 17A, Interferon (IFN)-gamma and Tumour necrosis factor (TNF)-α in peripheral blood mononuclear cells (PBMCs) isolated from fresh human buffy coats by centrifugation on Lymphoprep™ (Stemcell Technologies). All human cells are grown in cell culture medium RPMI-1640 supplemented with 1% penicillin/streptomycin and 5% heat inactivated fetal bovine serum.
(§2) PBMCs stimulated with LPS (Salmonella enterica serotype typhimurium) are incubated for 24 hours containing the compounds under investigation, reconstituted in dimethyl sulfoxide (DMSO). The secreted levels of Interleukin-1β and Interleukin-6 are measured in the cell culture supernatant using a cytometric bead array and the cell viability is quantified using Trypan blue.

Interleukin-6 = Interleukin-6 secretion from LPS-stimulated PBMCs; format: cell-based; conditions: stimulated human PBMCs, result in words
Description: as §1, §2

Interleukin-8 = Interleukin-8 secretion from PBMCs stimulated with TNF-α and IL-17A; format: cell-based; conditions: stimulated human PBMCs, result in words
Description: as §1
(§3) PBMCs stimulated with a mixture between TNF-α and IL-17A are incubated for 24 hours whilst containing the compounds under investigation, reconstituted in DMSO. The secreted levels of Interleukin-8 are measured in the cell culture supernatant using a cytometric bead array and the cell viability is quantified using Trypan blue.

Interleukin-17A = Interleukin-17A secretion from PMA/ionomycin-stimulated PBMCs; format: cell-based, human; conditions: for inhibition of IL-17 / IL-17A: stimulated human PBMCs, result in words
Description: as §1
as §3, with “PMA/ionomycin” for “a mixture between TNF-α and IL-17A”, “hours” for “hours whilst”, “Interleukin-17A” for “Interleukin-8”
(§4) 3,5-Diamino-6-(diphenylmethyl)-1,2,4-triazine was also investigated for […] inhibition in a human PBMC model: […]

Interferon-gamma = Interferon-gamma secretion from PMA/ionomycin-stimulated PBMCs; format: cell-based; conditions: stimulated human PBMCs, result in words
Description: as §1
(§5) PBMCs stimulated with PMA/ionomycin are incubated for 24 hours containing the compounds under investigation, reconstituted in DMSO. The secreted levels of Interferon-gamma and Tumour necrosis factor-α are measured in the cell culture supernatant using a Human Quantikine ELISA Kit and the cell viability is quantified using Trypan blue.

Tumour necrosis factor-α = Tumour necrosis factor-α secretion from PMA/ionomycin-stimulated PBMCs; format: cell-based; conditions: stimulated human PBMCs, result in words
Description: as §1, §5

IL-2 = IL-2 release from stimulated CD4-positive T cells; format: cell-based, human
Description: (§6) The compounds may be investigated for inhibition of pro-inflammatory cytokines Interleukin-2, 4 and 13 in human CD4-positive T cells isolated from fresh isolated PBMCS using a CD4-positive T cell isolation kit.
(§7) CD4-positive T cells stimulated with beads coated with antibodies against CD2, CD3 and CD28 are incubated for 48 hours containing the compounds under investigation, reconstituted in DMSO. The secreted levels of Interleukin-2, 4 and 13 are measured in the cell culture supernatant using a cytometric bead array and the cell viability is measured using an MTT (3-(4,5-dimethylthiazol-2-yl)-2,5-diphenyltetrazolium bromide) assay.
(§8) Secreted IL-4 levels may be measured using electrochemiluminescence (MSD kits, Meso Scale Discovery), while secreted IL-2 levels may be measured using proximity homogenous time-resolved fluorescence (HTRF) and the amount of living cells may be measured by addition of resazurin (PrestoBlue®).

IL-4 = IL-4 release from stimulated CD4-positive T cells; format: cell-based, human
Description: as §6, §7, §8

T cell = T cell proliferation in the IL-2/IL-4 inhibition assays; format: cell-based, human
Description: as §6, §7, §8

[1] = PBMC viability in the IL-17A human PBMC model; format: cell-based; conditions: PBMCs stimulated with PMA/ionomycin; human PBMC model, maximum effect; read-out: Inhibition of PMBC viability, Max effect
Description: as §3, with “PMA/ionomycin” for “a mixture between TNF-α and IL-17A”, “hours” for “hours whilst”, “Interleukin-17A” for “Interleukin-8”
as §4

PBMC = PBMC viability in the IL-17A human PBMC model; format: cell-based; conditions: Homo sapiens, PBMC
Description: as §3, with “PMA/ionomycin” for “a mixture between TNF-α and IL-17A”, “hours” for “hours whilst”, “Interleukin-17A” for “Interleukin-8”
as §4

Q: What does the source list for `Nc1nnc(C(c2ccccc2)c2ccccc2)c(N)n1` [Compound 2, 3,5-Diamino-6-(diphenylmethyl)-1,2,4-triazine]?
A: inhibition of IL-1β (Interleukin-1β): moderate inhibition; inhibition of IL-6 (Interleukin-6): moderate inhibition; inhibition of IL-8 (Interleukin-8): high inhibition; EC50 (Interleukin-17A; human PBMC model, absolute EC50, read-out: Inhibition of IL-17A release, Abs EC50): 0.317 µM; Emax (Interleukin-17A; human PBMC model, maximum effect, read-out: Inhibition of IL-17A release, Max effect): 86%; EC50 (Interleukin-17A; human PBMC model, relative EC50, read-out: Inhibition of IL-17A release, Rel EC50): 0.261 µM; inhibition of IL-17 / IL-17A (Interleukin-17A): high inhibition; inhibition of IFN-γ (Interferon-gamma): high inhibition; inhibition of TNF-α (Tumour necrosis factor-α; at the top concentration): high inhibition; EC50 (IL-2; Homo sapiens, CD4 positive, absolute EC50, read-out: Inhibition of IL-2 release, Abs EC50): 0.015 µM; Emax (IL-2; Homo sapiens, CD4 positive, maximum effect, read-out: Inhibition of IL-2 release, Max Effect): 97%; EC50 (IL-2; Homo sapiens, CD4 positive, relative EC50, read-out: Inhibition of IL-2 release, Rel EC50): 0.028 µM; inhibition of IL-2 (IL-2; result in words): good level of inhibition; EC50 (IL-4; Homo sapiens, CD4 positive, absolute EC50, read-out: Inhibition of IL-4 release, Abs EC50): 0.0613 µM; Emax (IL-4; Homo sapiens, CD4 positive, maximum effect, read-out: Inhibition of IL-4 release, Max Effect): 99%; EC50 (IL-4; Homo sapiens, CD4 positive, relative EC50, read-out: Inhibition of IL-4 release, Rel EC50): 0.0505 µM; EC50 (IL-4; relative EC50, read-out: Inhibition of IL-4 release, Rel EC50): 0.0584 µM; inhibition of IL-4 (IL-4; result in words): good level of inhibition; EC50 (T cell; Homo sapiens, T-cell, absolute EC50, read-out: Inhibition of T cell proliferation, Abs EC50): > 10 µM; Emax (T cell; Homo sapiens, T-cell, maximum effect, read-out: Inhibition of T cell proliferation, Max Effect): 28%; EC50 (T cell; Homo sapiens, T-cell, relative EC50, read-out: Inhibition of T cell proliferation, Rel EC50): > 10 µM; inhibition of T cell proliferation (T cell; result in words): without significant inhibition; cytotoxicity at 24 h [1]: 38%; EC50 (PBMC; read-out: Inhibition of PMBC viability, Abs EC50): > 10 µM; EC50 (PBMC; read-out: Inhibition of PMBC viability, Rel EC50): 44 µM

Q: For `Nc1nnc(-c2sc(Cl)c(Cl)c2Cl)c(N)n1` [Compound 1, 3,5-diamino-6-[2-(3,4,5-trichlorothienyl)]-1,2,4-triazine], which “inhibition of IL-1β” value (Interleukin-1β) is on record?
A: The value was “high inhibition”.

Q: And the “inhibition of IL-6” value (Interleukin-6)?
A: Its value is “high inhibition”.

Q: And the “inhibition of IL-8” value (Interleukin-8)?
A: Its value is “high inhibition”.

Q: And the “inhibition of IL-17 / IL-17A” value (Interleukin-17A)?
A: Its value is “moderate inhibition”.

Q: And the “inhibition of IFN-γ” value (Interferon-gamma)?
A: Its value is “high inhibition”.

Q: What about the “inhibition of TNF-α” value (Tumour necrosis factor-α) of the same compound?
A: Its value is “high inhibition”.
